Measured values: US20250206732A1, “COMPOUNDS AND METHODS FOR THE TARGETED DEGRADATION OF KRAS” (Arvinas Operations, Inc., priority 2022, published 2025)
Values belong to the compound of their own block, whether it stands above or below them.

Target: T1, AsPC-1 HiBiT-KRASG12D (Homo sapiens, UniProt P01116, G12D)
T1 construct: insert the HiBiT tag onto the N-terminus of one or more of the endogenous KRAS alleles; endogenous in cells; host or cells: AsPC-1 (ATCC CRL-1682), CRISPR-Cas9 knock-in clone, one tagged allele
T1 sequence (P01116 1-188 isoform P01116-2 G12D): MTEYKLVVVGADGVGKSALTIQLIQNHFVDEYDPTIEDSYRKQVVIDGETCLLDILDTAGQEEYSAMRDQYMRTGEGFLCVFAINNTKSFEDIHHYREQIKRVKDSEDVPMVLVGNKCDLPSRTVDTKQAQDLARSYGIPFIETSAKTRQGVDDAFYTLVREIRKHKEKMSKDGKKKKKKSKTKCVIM
Assay: HiBiT degradation assay (G12D), AsPC-1 HiBiT-KRASG12D cells
Type: cell-based
Details: 24 hours treatment; for Dmax: ASPC1, AsPC-1 HiBiT-KRASG12D cells, maximum degradation observed; for DC50: AsPC-1 HiBiT-KRASG12D cells, HiBiT luminescence
From the text: Reagents. […] SW1573 cells are homozygous for the G12C mutation in KRAS, AsPC-1 cells are homozygous for the G12D mutation, and SW620 cells are homozygous for the G12V mutation. […] For degradation assays, 384 well plates were used. Alamar blue was purchased from ThermoFisher scientific (A50101) and used according to manufacturer instructions. The Nano-Glo® HiBiT Lytic Detection System and Nano-Glo® HiBiT Blotting System were purchased from Promega (#N3050 and #N2410) and used according to manufacturer instructions.
To create the AsPC-1 HiBiT-KRASG12D cell line, CRISPR-Cas9 was used to insert the HiBiT tag onto the N-terminus of one or more of the endogenous KRAS alleles. […] After knock-in of the tag, individual clones were isolated by single cell dilution and screened for HiBiT insertion by PCR. […] This clone was used in further studies.
HiBiT degradation assays (G12C and G12D). […] All assays were performed in triplicate. Cells were treated with compounds for 24 hours at 37° C. in an incubator containing 5% CO2. Following treatment, alamar blue was used to determine if any compounds led to a loss in cell viability after 24 hours. The 10× alamar blue reagent was added to a final concentration of 1× as recommended by the manufacturer and cells were returned to the incubator for 4 hours. Plates were then allowed to equilibrate to room temperature and fluorescence was measured using a Perkin-Elmer EnVision. After completion of the fluorescence read, the liquid from each well was removed and the cells were washed with PBS. The Nano-Glo® HiBiT detection reagent was prepared according to the manufacturer's instructions and added to each well after the PBS wash was removed. Following incubation at room temperature for 45 minutes, the luminescence was read using the ultra-sensitive luminescence aperture on the Envision instrument.
Data analysis. Fluorescence values from the alamar blue treatment were normalized to the DMSO-only control for each compound titration.

Structure (SMILES): C#Cc1c(F)ccc2cc(O)cc(-c3ncc4c(N5CC6CCC(C5)N6)nc(OCCN5CCC6(CC5)CN(c5cc([C@H](C(=O)N7C[C@H](O)C[C@H]7C(=O)N[C@@H](C)c7ccc(-c8scnc8C)cc7)C(C)C)on5)C6)nc4c3F)c12 [Compound 33, (2S,4R)-1-[(2R)-2-[3-(7-{2-[(4-{3,8-diazabicyclo[3.2.1]octan-3-yl}-7-(8-ethynyl-7-fluoro-3-hydroxynaphthalen-1-yl)-8-fluoropyrido[4,3-d]pyrimidin-2-yl)oxy]ethyl}-2,7-diazaspiro[3.5]nonan-2-yl)-1,2-oxazol-5-yl]-3-methylbutanoyl]-4-hydroxy-N-[(1S)-1-[4-(4-methyl-1,3-thiazol-5-yl)phenyl]ethyl]pyrrolidine-2-carboxamide]
Dmax: 80 to 100%
DC50: < 600 nM

Structure (SMILES): CCc1cccc2cc(O)cc(-c3ncc4c(N5CC6CCC(C5)N6)nc(OCCN5CCC(F)(CN6CCN(c7cc([C@H](C(=O)N8C[C@H](O)C[C@H]8C(=O)N[C@@H](C)c8ccc(-c9scnc9C)cc8)C(C)C)on7)C[C@H]6C)CC5)nc4c3F)c12 [Compound 200, (2S,4R)-1-[(2R)-2-{3-[(3R)-4-[(1-{2-[(4-{3,8-diazabicyclo[3.2.1]octan-3-yl}-7-(8-ethyl-3-hydroxynaphthalen-1-yl)-8-fluoropyrido[4,3-d]pyrimidin-2-yl)oxy]ethyl}-4-fluoropiperidin-4-yl)methyl]-3-methylpiperazin-1-yl]-1,2-oxazol-5-yl}-3-methylbutanoyl]-4-hydroxy-N-[(1S)-1-[4-(4-methyl-1,3-thiazol-5-yl)phenyl]ethyl]pyrrolidine-2-carboxamide]
Dmax: 60 to 80%
DC50: < 600 nM

Structure (SMILES): C#Cc1c(F)ccc2cc(O)cc(-c3ncc4c(N5CC6CCC(C5)N6)nc(OCCN5CCC(C)(COc6cc([C@H](C(=O)N7C[C@H](O)C[C@H]7C(=O)N[C@@H](C)c7ccc(-c8scnc8C)cc7)C(C)C)on6)CC5)nc4c3F)c12 [Compound 313, (2S,4R)-1-[(2R)-2-{3-[(1-{2-[(4-{3,8-diazabicyclo[3.2.1]octan-3-yl}-7-(8-ethynyl-7-fluoro-3-hydroxynaphthalen-1-yl)-8-fluoropyrido[4,3-d]pyrimidin-2-yl)oxy]ethyl}-4-methylpiperidin-4-yl)methoxy]-1,2-oxazol-5-yl}-3-methylbutanoyl]-4-hydroxy-N-[(1S)-1-[4-(4-methyl-1,3-thiazol-5-yl)phenyl]ethyl]pyrrolidine-2-carboxamide]
Dmax: 80 to 100%
DC50: < 600 nM

Structure (SMILES): CCc1cccc2cc(O)cc(-c3ncc4c(N5CC6CCC(C5)N6)nc(OC[C@]56CCCN5[C@H](COc5cc([C@H](C(=O)N7C[C@H](O)C[C@H]7C(=O)N[C@@H](C)c7ccc(-c8scnc8C)cc7)C(C)C)on5)CC6)nc4c3F)c12 [Compound 323, (2S,4R)-1-[(2R)-2-(3-{[(3S,7aR)-7a-{[(4-{3,8-diazabicyclo[3.2.1]octan-3-yl}-7-(8-ethyl-3-hydroxynaphthalen-1-yl)-8-fluoropyrido[4,3-d]pyrimidin-2-yl)oxy]methyl}-hexahydro-1H-pyrrolizin-3-yl]methoxy}-1,2-oxazol-5-yl)-3-methylbutanoyl]-4-hydroxy-N-[(1S)-1-[4-(4-methyl-1,3-thiazol-5-yl)phenyl]ethyl]pyrrolidine-2-carboxamide]
Dmax: 60 to 80%

Structure (SMILES): C#Cc1c(F)ccc2cc(O)cc(-c3ncc4c(N5CC6CCC(C5)N6)nc(OC[C@@H]5CC[C@@H](COC(=O)N6CCN(c7cc([C@H](C(=O)N8C[C@H](O)C[C@H]8C(=O)N[C@@H](C)c8ccc(-c9scnc9C)cc8)C(C)C)on7)CC6)N5C)nc4c3F)c12 [Compound 59, [(2S,5S)-5-{[(4-{3,8-diazabicyclo[3.2.1]octan-3-yl}-7-(8-ethynyl-7-fluoro-3-hydroxynaphthalen-1-yl)-8-fluoropyrido[4,3-d]pyrimidin-2-yl)oxy]methyl}-1-methylpyrrolidin-2-yl]methyl 4-{5-[(2R)-1-[(2S,4R)-4-hydroxy-2-{[(1S)-1-[4-(4-methyl-1,3-thiazol-5-yl)phenyl]ethyl]carbamoyl}pyrrolidin-1-yl]-3-methyl-1-oxobutan-2-yl]-1,2-oxazol-3-yl}piperazine-1-carboxylate]
Dmax: 80 to 100%
DC50: < 600 nM

Structure (SMILES): Cc1ncsc1-c1ccc([C@H](C)NC(=O)[C@@H]2C[C@@H](O)CN2C(=O)[C@@H](c2cc(OCC3CCN(CCOc4nc(N5CC6CCC(C5)N6)c5cnc(-c6cc(O)cc(Cl)c6C(F)(F)F)c(F)c5n4)CC3)no2)C(C)C)cc1 [Compound 24, (2S,4R)-1-[(2R)-2-[3-({1-[2-({7-[3-chloro-5-hydroxy-2-(trifluoromethyl)phenyl]-4-{3,8-diazabicyclo[3.2.1]octan-3-yl}-8-fluoropyrido[4,3-d]pyrimidin-2-yl}oxy)ethyl]piperidin-4-yl}methoxy)-1,2-oxazol-5-yl]-3-methylbutanoyl]-4-hydroxy-N-[(1S)-1-[4-(4-methyl-1,3-thiazol-5-yl)phenyl]ethyl]pyrrolidine-2-carboxamide]
Dmax: 80 to 100%
DC50: < 600 nM

Structure (SMILES): Cc1ncsc1-c1ccc([C@H](C)NC(=O)[C@@H]2C[C@@H](O)CN2C(=O)[C@@H](c2cc(OC[C@@H]3CC[C@]4(COc5nc(N6CC7CCC(C6)N7)c6cnc(-c7cccc8ccc(F)c(F)c78)c(F)c6n5)CCCN34)no2)C(C)C)cc1 [Compound 61, (2S,4R)-1-[(2R)-2-(3-{[(3S,7aS)-7a-{[(4-{3,8-diazabicyclo[3.2.1]octan-3-yl}-7-(7,8-difluoronaphthalen-1-yl)-8-fluoropyrido[4,3-d]pyrimidin-2-yl)oxy]methyl}-hexahydro-1H-pyrrolizin-3-yl]methoxy}-1,2-oxazol-5-yl)-3-methylbutanoyl]-4-hydroxy-N-[(1S)-1-[4-(4-methyl-1,3-thiazol-5-yl)phenyl]ethyl]pyrrolidine-2-carboxamide]
Dmax: 80 to 100%
DC50: < 600 nM

Structure (SMILES): CCc1cccc2cc(O)cc(-c3ncc4c(N5CC6CCC(C5)N6)nc(OCCN5CC[C@H]6CN(c7cc([C@H](C(=O)N8C[C@H](O)C[C@H]8C(=O)N[C@@H](C)c8ccc(-c9scnc9C)cc8)C(C)C)on7)C[C@H]6C5)nc4c3F)c12 (relative stereo) [Compound 69, (2S,4R)-1-[(2R*)-2-{3-[(3aR**,7aR***)-5-{2-[(4-{3,8-diazabicyclo[3.2.1]octan-3-yl}-7-(8-ethyl-3-hydroxynaphthalen-1-yl)-8-fluoropyrido[4,3-d]pyrimidin-2-yl)oxy]ethyl}-octahydro-1H-pyrrolo[3,4-c]pyridin-2-yl]-1,2-oxazol-5-yl}-3-methylbutanoyl]-4-hydroxy-N-[(1S)-1-[4-(4-methyl-1,3-thiazol-5-yl)phenyl]ethyl]pyrrolidine-2-carboxamide]
Dmax: 80 to 100%
DC50: < 600 nM

Structure (SMILES): CCc1cccc2cc(O)cc(-c3ncc4c(N5CC6CCC(C5)N6)nc(N5CC(CN6CCC(CC7CN(c8cc([C@H](C(=O)N9C[C@H](O)C[C@H]9C(=O)N[C@@H](C)c9ccc(-c%10scnc%10C)cc9)C(C)C)on8)C7)CC6)C5)nc4c3F)c12 [Compound 182, (2S,4R)-1-[(2R)-2-(3-{3-[(1-{[1-(4-{3,8-diazabicyclo[3.2.1]octan-3-yl}-7-(8-ethyl-3-hydroxynaphthalen-1-yl)-8-fluoropyrido[4,3-d]pyrimidin-2-yl)azetidin-3-yl]methyl}piperidin-4-yl)methyl]azetidin-1-yl}-1,2-oxazol-5-yl)-3-methylbutanoyl]-4-hydroxy-N-[(1S)-1-[4-(4-methyl-1,3-thiazol-5-yl)phenyl]ethyl]pyrrolidine-2-carboxamide]
Dmax: 20 to 60%
DC50: < 600 nM

DC50: > 3000 nM
Structure (SMILES): CCc1cccc2cc(O)cc(-c3ncc4c(N5CC6CCC(C5)N6)nc(OCCN5CCC(CN6CCN(c7cc([C@@H](C(=O)N8C[C@H](O)C[C@H]8C(=O)N[C@@H](C)c8ccc(-c9ccnn9C)cc8)C(C)C)on7)CC6)CC5)nc4c3F)c12 [Compound 201, (2S,4R)-1-[(2S)-2-(3-{4-[(1-{2-[(4-{3,8-diazabicyclo[3.2.1]octan-3-yl}-7-(8-ethyl-3-hydroxynaphthalen-1-yl)-8-fluoropyrido[4,3-d]pyrimidin-2-yl)oxy]ethyl}piperidin-4-yl)methyl]piperazin-1-yl}-1,2-oxazol-5-yl)-3-methylbutanoyl]-4-hydroxy-N-[(1S)-1-[4-(1-methyl-1H-pyrazol-5-yl)phenyl]ethyl]pyrrolidine-2-carboxamide]
